16 molecules from ChEMBL document CHEMBL1201862, “PubChem BioAssay data set” (2004) can be followed below.

In one assay the test system is Vero. In words: cells. In kind it is functional. The following applies: Chlorocebus sabaeus.
Assay [1] in a line: viability of HCT116 lacking mutant beta-catenin – cell-based, human colon tumor, dose response (AID 1045).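 Also: HCT116 colon tumor cells with beta catenin knocked out; cells exposed to compound for 60 hours.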 In kind it is functional.
Assay [2] can be described thus: viability of PTEN-deleted HCT116 cells – cell-based, HCT116 PTEN knockout, dose response (AID 1047).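 Also: HCT116 colon tumor cells with PTEN knocked out; cells exposed to compound for 60 hours before readout; potency for loss of cell viability measured by luminescence.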 Type of assay: functional.
The target of assay [3] is T1, Corticotropin-releasing factor receptor 2/Corticotropin-releasing factor-binding protein (Homo sapiens, UniProt P24387+Q13324).
T1 sequence (Q13324 whole entry): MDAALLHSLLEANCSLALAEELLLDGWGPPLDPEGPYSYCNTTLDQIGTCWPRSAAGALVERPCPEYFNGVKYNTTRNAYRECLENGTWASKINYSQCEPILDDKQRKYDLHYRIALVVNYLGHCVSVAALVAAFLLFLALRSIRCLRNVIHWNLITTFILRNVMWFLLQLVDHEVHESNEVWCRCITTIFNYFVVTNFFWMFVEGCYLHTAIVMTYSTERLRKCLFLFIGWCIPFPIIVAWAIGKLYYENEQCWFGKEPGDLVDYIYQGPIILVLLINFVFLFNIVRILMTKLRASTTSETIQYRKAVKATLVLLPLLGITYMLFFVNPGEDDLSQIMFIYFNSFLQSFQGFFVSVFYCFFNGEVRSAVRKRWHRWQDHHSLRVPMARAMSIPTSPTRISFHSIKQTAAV
T1 sequence (P24387 whole entry): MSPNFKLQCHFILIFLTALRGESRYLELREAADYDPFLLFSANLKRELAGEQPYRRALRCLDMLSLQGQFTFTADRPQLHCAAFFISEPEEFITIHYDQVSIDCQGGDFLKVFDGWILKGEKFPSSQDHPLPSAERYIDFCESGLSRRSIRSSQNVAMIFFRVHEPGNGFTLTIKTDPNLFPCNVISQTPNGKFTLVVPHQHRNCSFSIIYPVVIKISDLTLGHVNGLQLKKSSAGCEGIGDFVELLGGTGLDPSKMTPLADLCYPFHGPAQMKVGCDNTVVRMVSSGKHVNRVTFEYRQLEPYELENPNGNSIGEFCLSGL
The assay is described as follows: Dose Response confirmation of uHTS hits for small molecule antagonists of the CRF-binding protein and CRF-R2 receptor complex. In kind it is functional. The following applies: read-out: IC50_Mean.

The target of assay [4] is Glucose-6-phosphate 1-dehydrogenase (Homo sapiens, UniProt P11413). The assay is described as follows: inhibition of Homo sapiens G6PD, dose series – biochemical, fluorescence, selectivity assay for P. falciparum G6PD inhibitor project, dose response (AID 504792). Type of assay: functional.
The target in assay [5] is T1, Corticotropin-releasing factor receptor 2/Corticotropin-releasing factor-binding protein. In words: activators of CRF receptor 2 with binding protein – uHTS hits, confirmation (AID 602473). Type of assay: functional. The following applies: read-out: EC50_Mean.
Assay [6] is described as follows: microbe, parasite or virus in culture. Type of assay: functional. As to conditions: Mycobacterium tuberculosis.
The target in a further assay is T2, Leucine aminopeptidase (Plasmodium falciparum 3D7, UniProt Q8IL11).
T2 sequence (Q8IL11 whole entry): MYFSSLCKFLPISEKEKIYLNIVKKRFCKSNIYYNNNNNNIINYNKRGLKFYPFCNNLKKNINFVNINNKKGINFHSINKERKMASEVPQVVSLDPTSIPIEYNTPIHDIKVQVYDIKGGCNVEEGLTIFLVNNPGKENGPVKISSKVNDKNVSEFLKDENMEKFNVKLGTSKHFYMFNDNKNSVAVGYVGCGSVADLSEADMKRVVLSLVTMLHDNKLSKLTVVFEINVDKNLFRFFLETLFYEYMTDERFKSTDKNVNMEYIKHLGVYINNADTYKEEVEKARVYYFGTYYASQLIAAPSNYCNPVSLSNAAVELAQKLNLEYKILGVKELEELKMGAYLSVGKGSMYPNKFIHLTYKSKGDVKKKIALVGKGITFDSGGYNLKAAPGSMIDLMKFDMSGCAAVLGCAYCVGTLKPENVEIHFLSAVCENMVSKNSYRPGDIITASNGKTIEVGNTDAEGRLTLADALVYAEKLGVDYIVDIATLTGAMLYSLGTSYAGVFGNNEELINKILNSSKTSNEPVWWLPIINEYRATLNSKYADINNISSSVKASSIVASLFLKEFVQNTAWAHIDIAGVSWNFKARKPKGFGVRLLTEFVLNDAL
In words: P. falciparum M17LAP inhibitors, primary screen, biochemical, fluorogenic H-Leu-NHMec substrate, 1536-well (AID 1619). In kind it is functional.

Assay [7] can be described thus: NIH3T3 cell viability loss – ATP luminescence, mouse fibroblasts, counter-screen, dose response (AID 2010).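 Also: cells exposed to compound for about 90 hours before reading.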 In kind it is functional, cell-based. (Counterscreens check selectivity or assay interference.)
The nature of assay [8]: Trypanosoma cruzi growth suppression in host cells – NIH3T3 host cells, beta-gal luminescence, confirmation (AID 2044).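 Also: intracellular parasites grown in NIH/3T3 mouse fibroblasts as host cells; luminescent beta-galactosidase reporter signal from transgenic T. cruzi replicating inside host cells; inhibitors lower the luminescence signal.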 In kind it is functional, cell-based.
The nature of assay [9]: HIV-1 AD8 envelope cell-cell fusion blockers – cherry-pick, dose response (AID 652062).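 Also: luciferase signal from cell-cell fusion driven by HIV-1 clade B AD8 Env; potency is for inhibitors of fusion seen as a drop in luminescence.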 Type of assay: functional, cell-based.
For the next assay, the system named is HEK293. The assay is described as follows: EBV LMP1 TES2 canonical NF-kB signalling blockers – cell-based, HEK293, luciferase, cherry-pick, dose response (AID 588343). In kind it is functional. As to conditions: Homo sapiens.
Another assay deals with T3, Coagulation factor XII (Homo sapiens, UniProt P00748).
T3 sequence (P00748 whole entry): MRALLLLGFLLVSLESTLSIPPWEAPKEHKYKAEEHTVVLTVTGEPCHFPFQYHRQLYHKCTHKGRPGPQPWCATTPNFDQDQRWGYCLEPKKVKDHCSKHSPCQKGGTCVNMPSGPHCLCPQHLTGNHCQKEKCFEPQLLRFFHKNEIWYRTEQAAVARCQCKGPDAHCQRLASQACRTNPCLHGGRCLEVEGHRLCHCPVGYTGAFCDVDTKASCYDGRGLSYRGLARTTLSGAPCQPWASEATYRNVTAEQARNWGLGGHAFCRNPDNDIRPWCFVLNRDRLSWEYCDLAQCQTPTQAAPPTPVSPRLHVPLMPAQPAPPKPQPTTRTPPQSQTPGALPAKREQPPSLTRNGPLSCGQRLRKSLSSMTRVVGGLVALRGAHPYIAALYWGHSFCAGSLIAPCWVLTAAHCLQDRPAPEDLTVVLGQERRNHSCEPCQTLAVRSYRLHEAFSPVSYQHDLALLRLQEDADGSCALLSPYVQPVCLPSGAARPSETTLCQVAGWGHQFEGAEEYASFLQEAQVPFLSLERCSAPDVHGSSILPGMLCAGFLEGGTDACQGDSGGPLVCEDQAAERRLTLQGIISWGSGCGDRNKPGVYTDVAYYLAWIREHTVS
Type of assay: functional.

A further assay is described as follows: cells. In kind it is functional.
Assay [10] deals with T4, Heat shock factor protein 1 (Mus musculus, UniProt P38532).
T4 sequence (P38532 whole entry): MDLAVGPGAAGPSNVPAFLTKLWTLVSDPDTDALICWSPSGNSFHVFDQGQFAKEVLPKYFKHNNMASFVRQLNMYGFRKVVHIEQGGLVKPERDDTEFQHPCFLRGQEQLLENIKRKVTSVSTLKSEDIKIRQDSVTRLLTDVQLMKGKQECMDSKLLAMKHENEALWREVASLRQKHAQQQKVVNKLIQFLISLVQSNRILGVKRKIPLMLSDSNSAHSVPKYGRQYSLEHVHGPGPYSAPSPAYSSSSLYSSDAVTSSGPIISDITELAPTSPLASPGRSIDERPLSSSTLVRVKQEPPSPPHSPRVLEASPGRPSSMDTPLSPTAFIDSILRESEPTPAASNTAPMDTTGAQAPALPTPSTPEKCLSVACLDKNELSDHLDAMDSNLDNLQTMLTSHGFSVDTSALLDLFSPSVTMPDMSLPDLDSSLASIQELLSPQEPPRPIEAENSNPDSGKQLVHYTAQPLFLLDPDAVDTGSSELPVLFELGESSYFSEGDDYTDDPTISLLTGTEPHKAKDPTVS
The assay is described as follows: decrease of HSF1-responsive luciferase luminescence – cell-based, NIH3T3, dose retest, confirmation (AID 2382).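 Also: NIH3T3 fibroblasts with HSF1-driven luciferase reporter stressed by proteasome inhibitor MG132; luminescence from HSF1-driven luciferase expression after 8 hours of MG132 stress.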 In kind it is functional.

Assay [11] in a line: Luminescence Cell-Based Dose Retest to Confirm Inhibitors of Cancer Stem Cells. [Related pubchem assays (depositor defined):AID2717, AID2721]. In kind it is functional. As to conditions: Homo sapiens.
Assay [12] has as its target Heat shock protein HSP 90-alpha (Homo sapiens, UniProt P07900). Type of assay: functional, organism-based.
Assay [13] is described as follows: NIH-3T3 fibroblast cytotoxicity, dose response, cytotoxicity control, cell-based, fluorescence, Alamar Blue, secondary assay (AID 2327).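 Also: NIH-3T3 mouse fibroblasts cultured with fluconazole at 8 µg/mL.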 Type of assay: functional.
The nature of assay [14]: fluconazole-exposed Candida albicans growth modulators – fluorescence, retest, confirmation (AID 2467). In kind it is functional, cell-based.
Assay [15] is described as follows: viability of uninfected HEp-2 cells – cell-based, HTS, cytotoxicity control for RSV inhibitor project, dose response (AID 2410). As to conditions: human respiratory syncytial virus. Type of assay: functional.
The target of another assay is Cytochrome P450 2C9 (Homo sapiens, UniProt P11712).

Activity calls are given as the source filed them.

Sequence of Glucose-6-phosphate 1-dehydrogenase (P11413 whole entry): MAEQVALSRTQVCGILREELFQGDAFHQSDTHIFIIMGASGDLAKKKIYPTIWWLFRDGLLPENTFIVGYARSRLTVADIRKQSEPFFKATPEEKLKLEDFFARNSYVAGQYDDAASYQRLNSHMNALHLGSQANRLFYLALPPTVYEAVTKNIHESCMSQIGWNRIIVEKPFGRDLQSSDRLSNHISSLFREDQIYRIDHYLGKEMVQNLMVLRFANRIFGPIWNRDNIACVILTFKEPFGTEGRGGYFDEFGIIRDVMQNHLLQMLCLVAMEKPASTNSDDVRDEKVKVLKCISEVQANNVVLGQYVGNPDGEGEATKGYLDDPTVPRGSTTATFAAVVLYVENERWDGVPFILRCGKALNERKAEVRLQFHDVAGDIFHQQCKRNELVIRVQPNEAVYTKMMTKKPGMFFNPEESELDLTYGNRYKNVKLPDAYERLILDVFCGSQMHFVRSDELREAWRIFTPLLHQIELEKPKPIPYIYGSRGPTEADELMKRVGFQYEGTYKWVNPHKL
Sequence of Cytochrome P450 2C9 (P11712 whole entry): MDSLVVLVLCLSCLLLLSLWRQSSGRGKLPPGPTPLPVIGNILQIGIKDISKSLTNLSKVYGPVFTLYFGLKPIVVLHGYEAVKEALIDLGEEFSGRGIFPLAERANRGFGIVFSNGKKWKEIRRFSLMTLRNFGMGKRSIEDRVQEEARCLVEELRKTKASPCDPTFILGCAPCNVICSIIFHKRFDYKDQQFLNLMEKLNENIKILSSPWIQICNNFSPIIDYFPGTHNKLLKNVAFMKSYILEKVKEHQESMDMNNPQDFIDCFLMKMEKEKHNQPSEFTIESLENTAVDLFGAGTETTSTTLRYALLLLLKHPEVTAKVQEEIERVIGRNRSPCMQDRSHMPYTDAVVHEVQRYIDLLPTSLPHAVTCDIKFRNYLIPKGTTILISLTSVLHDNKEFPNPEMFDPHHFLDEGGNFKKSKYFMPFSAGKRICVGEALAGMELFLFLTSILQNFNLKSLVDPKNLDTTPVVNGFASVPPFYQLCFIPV

With `O=C(CCS(=O)(=O)c1ccccc1)Nc1nc2c(s1)COc1ccccc1-2`, in the assay with Vero, the CC50 was > 25 µM (active). The EC50 was 14.1 µM (active) in [1] and 18.7 µM (active) in [2].
Regarding `O=C(Nc1nnc(S(=O)(=O)N2CCCCC2)s1)c1ccc(Cl)cc1`, the figures for the IC50 in assay [3] and in assay [4] were > 47.1 µM (inactive) and > 80 µM (inactive), respectively. For the same molecule, the EC50 in assay [5] was > 53 µM (inactive).
`CCC(=O)NC(=S)Nc1ccc(NC(=O)COc2ccc(Cl)cc2Cl)cc1`: the CC50 in assay [6] is 39.6 µM (active).
For the molecule `O=C(CSc1nnc(NC(=O)c2c(F)cccc2F)s1)Nc1ccc(F)cc1`, the IC50 at Leucine aminopeptidase is 32.3 µM (active).
In the case of `COc1c(Cl)cc(Cl)cc1C(=O)Nc1ccc(CN2CCCCC2)cc1`, the CC50 in the assay with Vero is > 25 µM (active). In addition, the figures for the EC50 in [7] and in assay [8] were > 60 µM (not active) and 3 µM (active), respectively.
For orientation: AC50 means the concentration at which the activity in the assay is half-maximal. As for `Cc1onc(-c2ccccc2)c1C(=O)Nc1ccc(Br)cc1Cl`, in assay [9], the AC50 is 3.43 µM (active).
With `CNS(=O)(=O)c1cccc(C(=O)OCC(=O)c2ccc3c(c2)OCCO3)c1`, the half-maximal activity concentration (AC50) in the assay with HEK293 is 8.57 µM (active).
Turning to `COc1cc(C(=O)ON=C2C=C(C)C(=O)C(C)=C2)cc(OC)c1OC`, the IC50 was 533 nM (active) at Coagulation factor XII, > 80 µM (inactive) in assay [4] and 40.2 µM (active) in the assay “cells”.
As for `CC(c1ccccc1)N1CCN(C(=O)CCl)CC1` (centres undefined), the figures for the CC50 (in the assay on Vero; in assay [6]) were 9.03 µM (active) and 17.9 µM (active), respectively. For the same molecule, the EC50 in assay [10] is 43.8 µM (active).
In the case of `C=CCn1cccc(/C=C/C(=O)c2ccc(C(C)(C)C)cc2)c1=S`, the figures for the EC50 in assay [1] and in [2] were 2.56 µM (active) and 4.04 µM (active), respectively. In assay [11], the AC50 is 5.64 µM (active). The CC50 in assay [6] is 10.3 µM (active).
Regarding `N#Cc1ncc(N=Cc2ccc(N(CCCl)CCCl)cc2)s1`, the AC50 in the assay on HEK293 was 1.22 µM (active).
Take `O=S(=O)(c1ccc(NC(=S)NC23CC4CC(CC(C4)C2)C3)cc1)N1CCCCC1`: in the assay on Vero, the CC50 is 8.76 µM (active).
Regarding `O=C(N/N=C/c1ccccn1)c1cc(-c2ccc(Cl)cc2)nc2ccccc12`, the CC50 in the assay on Vero is 14.2 µM (active); in assay [15] it was 11.8 µM (active). Further, the AC50 in assay [12] is 7.9 µM (active). The EC50 in [13] was 20.6 µM (active); in assay [14], 1.06 µM (active).
For the molecule `CSc1ccc(N/N=C(/C#N)S(=O)(=O)C(C)(C)C)cc1`, the IC50 on Leucine aminopeptidase is 30.6 µM (active).
Same read-out and setting: under `O=C(O)c1ccc(N/N=C/c2ccc(C(F)(F)F)cc2)cc1` stands 46.3 µM (active).
With `Cc1ccc(C(=O)N/N=C/c2sc(=O)n(Cc3cccc(C(=O)O)c3)c2Cl)cc1`, the IC50 on Leucine aminopeptidase was 17.8 µM (active). The AC50 at Cytochrome P450 2C9 was 12.6 µM (inconclusive).
